Reference: patent US20210221848A1, “POLYMYXIN DERIVATIVES AND THEIR USE IN COMBINATION THERAPY TOGETHER WITH DIFFERENT ANTIBIOTICS” (priority 2014, published 2021)

Legend:
E. coli [1] = assay: MIC in the presence of a fixed concentration (2 μg/mL) of Rifampicin; assay type: cell-based, Escherichia coli; conditions: Rifampicin 2 μg/mL, Table 5D
K. pneumoniae [2] = conditions: absence of a second agent, Table 6B
A. baumannii [3] = conditions: absence of a second agent, Table 6B
K. pneumoniae [4] = assay: MIC in the presence of a fixed concentration (2 μg/mL) of Rifampicin; assay type: cell-based, Klebsiella pneumoniae; conditions: Rifampicin 2 μg/mL, Table 5D
Experimental: (§1) The inoculum was prepared by making a direct suspension of isolated colonies (selected from an 18-24 hour Mueller-Hinton agar plate) adjusted to the 0.5 McFarland standard. […] The assays were performed in duplicate. […] In cases where the duplicate values varied by less than 2-fold, the lower of the two values is reported. If a variation of greater than 2-fold was observed, the assay was considered non-valid. Several of the compounds were subjected to multiple tests, and where this is the case, the MIC reflects the modal value obtained.

A. baumannii [5] = assay: MIC in the presence of […] of rifampicin; assay type: cell-based, Acinetobacter baumannii; conditions: for MIC in combination with Rifampicin, A. baumannii ATCC BAA-747: A. baumannii ATCC BAA-747, Table 5D; for MIC in combination with Rifampicin, A. baumannii NCTC 13424: A. baumannii NCTC 13424, Table 5D
Experimental: as §1

E. coli [6] = conditions: absence of a second agent, Table 6B
P. aeruginosa = conditions: absence of a second agent, Table 6B

Substance	MIC in combination with Rifampicin, E. coli ATCC 25922 (E. coli [1])	MIC in combination with Rifampicin, E. coli NCTC 13441 (E. coli [1])	MIC, K. pneumoniae ATCC 4352 (K. pneumoniae [2])	MIC, K. pneumoniae ATCC BAA-2146 (K. pneumoniae [2])	MIC, A. baumannii ATCC BAA-747 (A. baumannii [3])	MIC, A. baumannii NCTC 13424 (A. baumannii [3])	MIC in combination with Rifampicin, K. pneumoniae ATCC 4352 (K. pneumoniae [4])	MIC in combination with Rifampicin, K. pneumoniae ATCC BAA-2146 (K. pneumoniae [4])	MIC in combination with Rifampicin, A. baumannii ATCC BAA-747 (A. baumannii [5])	MIC in combination with Rifampicin, A. baumannii NCTC 13424 (A. baumannii [5])	MIC, E. coli ATCC 25922 (E. coli [6])	MIC, E. coli NCTC 13441 (E. coli [6])	MIC, P. aeruginosa ATCC 27853 (P. aeruginosa)	MIC, P. aeruginosa CCUG 59347 (P. aeruginosa)
(5-Phenyl-piperidine)- 3-carbonyl polymyxin B nonapeptide [Example D7]	0.06 micrograms/mL	0.5 micrograms/mL	8 micrograms/mL	>8 micrograms/mL	>8 micrograms/mL	>8 micrograms/mL	0.125 micrograms/mL	0.5 micrograms/mL	1 micrograms/mL	0.03 micrograms/mL	>8 micrograms/mL	>8 micrograms/mL	2 micrograms/mL	>8 micrograms/mL
(cis-5-cyclohexyl- piperidine)-3-carbonyl polymyxin B nonapeptide [Example D10]	–	0.5 micrograms/mL	8 micrograms/mL	>8 micrograms/mL	>8 micrograms/mL	8 micrograms/mL	0.125 micrograms/mL	0.25 micrograms/mL	0.5 micrograms/mL	≤0.015 micrograms/mL	4 micrograms/mL	4 micrograms/mL	1 micrograms/mL	2 micrograms/mL
(trans-5-cyclohexyl- piperidine)-3-carbonyl polymyxin B nonapeptide [Example D13]	0.06 micrograms/mL	0.125 micrograms/mL	0.125 micrograms/mL	0.25 micrograms/mL	0.5 micrograms/mL	0.125 micrograms/mL	0.125 micrograms/mL	0.125 micrograms/mL	0.125 micrograms/mL	0.06 micrograms/mL	–	0.125 micrograms/mL	0.5 micrograms/mL	0.5 micrograms/mL
(5-Phenyl-piperidine)- 3-carbonyl polymyxin B nonapeptide [Example D8]	≤0.015 micrograms/mL	–	0.125 micrograms/mL	0.5 micrograms/mL	0.25 micrograms/mL	0.5 micrograms/mL	0.03 micrograms/mL	0.06 micrograms/mL	0.03 micrograms/mL	≤0.015 micrograms/mL	0.125 micrograms/mL	0.25 micrograms/mL	0.5 micrograms/mL	1 micrograms/mL
